Patent US20260297080A1, “BICYCLIC COMPOUNDS AS CDK INHIBITORS” (BeOne Medicines I GmbH, priority 2022, published 2026)
pIC50: −log10 of the molar value.

How the values were obtained:
[1] = molecular target: T1, CDK2/Cyclin E1 (Homo sapiens, UniProt P24941); experiment: CDK2/Cyclin E1 Biochemical Assay (TR-FRET), 1 mM ATP; conditions: 0.15 μM Rb (Ser780)-biotin substrate, pH7.0, 60 min preincubation, 90 min reaction, room temperature
Experimental: (§1) CDK2/Cyclin E1 and CDK1/Cyclin B1 Biochemical Assays
(§2) Compounds disclosed herein were tested for inhibition of CDK2/Cyclin E1 or CDK1/Cyclin B1 kinase in an assay based on the time-resolved fluorescence-resonance energy transfer (TR-FRET) methodology. The assay was carried out in 384-well low volume black plates in a reaction mixture containing CDK2/Cyclin E1 or CDK1/Cyclin B1, 1 mM ATP for CDK2/Cyclin E1 and CDK1/Cyclin B1, 0.15 μM Rb (Ser780)-biotin substrate and 0-10 μM compound in buffer containing 50 mM HEPES pH7.0, 0.02% NaN3, 0.01% BSA, 0.1 mM Orthovanadate, 50 mM MgCl2, 1 mM DTT and 0.005% Tween-20. The kinase was incubated with compound for 60 minutes at room temperature and the reaction was initiated by the addition of ATP and Rb (Ser780)-biotin substrate. After reaction at room temperature for 90 minutes, an equal volume of stop/detection solution was added according to the manufacture's instruction (Cisbio Bioassays). The stop/detection solution contained Streptavidin-XL665 and Anti-pRb (Ser780) mAb-Eu Cryptate in Detection buffer (Cisbio Bioassays). Plates were incubated at room temperature for 60 minutes, and the TR-FRET signals (ex337 nm, em665 nm/620 nm) were recorded on a PHERAstar FSX plate reader (BMG Labtech). The inhibition percentage of CDK2/Cyclin E1 or CDK1/Cyclin B1 kinase activity in presence of increasing concentrations of compounds was calculated based on the ratio of fluorescence at 665 nm to that at 620 nm. The IC50 for each compound was derived from fitting the data to the four-parameter logistic equation by Dotmatics.

[2] = molecular target: T2, CDK1/Cyclin B1 (Homo sapiens, UniProt P06493); experiment: CDK1/Cyclin B1 Biochemical Assay (TR-FRET), 1 mM ATP; conditions: 0.15 μM Rb (Ser780)-biotin substrate, pH7.0, 60 min preincubation, 90 min reaction, room temperature
T2 sequence (P06493 whole entry): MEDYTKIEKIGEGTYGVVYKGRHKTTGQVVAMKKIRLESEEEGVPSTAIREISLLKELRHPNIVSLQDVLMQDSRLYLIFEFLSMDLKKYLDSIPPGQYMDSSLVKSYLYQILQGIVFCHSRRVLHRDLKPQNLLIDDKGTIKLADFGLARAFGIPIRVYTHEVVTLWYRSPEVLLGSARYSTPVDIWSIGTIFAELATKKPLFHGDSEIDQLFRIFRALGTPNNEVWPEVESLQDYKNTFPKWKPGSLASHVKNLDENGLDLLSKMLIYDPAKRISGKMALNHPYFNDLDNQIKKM
T2 sequence (P14635 whole entry partner): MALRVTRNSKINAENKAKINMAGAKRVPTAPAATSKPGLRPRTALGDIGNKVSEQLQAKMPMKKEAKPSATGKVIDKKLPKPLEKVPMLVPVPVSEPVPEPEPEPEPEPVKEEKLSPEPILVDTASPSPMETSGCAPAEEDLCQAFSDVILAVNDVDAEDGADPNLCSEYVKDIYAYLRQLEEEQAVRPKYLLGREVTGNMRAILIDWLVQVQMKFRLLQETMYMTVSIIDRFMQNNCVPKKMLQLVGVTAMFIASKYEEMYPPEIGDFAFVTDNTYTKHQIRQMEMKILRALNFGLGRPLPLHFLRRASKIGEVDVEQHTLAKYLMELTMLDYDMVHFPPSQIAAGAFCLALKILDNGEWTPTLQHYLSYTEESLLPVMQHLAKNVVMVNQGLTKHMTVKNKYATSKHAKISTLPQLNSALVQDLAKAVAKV
Experimental: as §1, §2

[3] = molecular target: T1, CDK2/Cyclin E1; experiment: CDK2/Cyclin E1 Biochemical Assay (TR-FRET), 0.060 mM ATP; conditions: 0.15 μM Rb (Ser780)-biotin substrate, pH7.0, 60 min preincubation, 120 min reaction, room temperature
Procedure, shortened: (§3)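 Percent inhibition was derived from the 665 nm/620 nm TR-FRET ratio after a 120-minute room-temperature reaction on 0.15 μM Rb (Ser780)-biotin, preceded by 60-minute enzyme–compound preincubation. IC50 came from four-parameter logistic fitting.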

[4] = molecular target: T2, CDK1/Cyclin B1; experiment: CDK1/Cyclin B1 Biochemical Assay (TR-FRET), 0.015 mM ATP; conditions: 0.15 μM Rb (Ser780)-biotin substrate, pH7.0, 60 min preincubation, 120 min reaction, room temperature
Procedure, shortened: as §3

Row | pIC50 [1] | pIC50 [2] | pIC50 [3] | pIC50 [4] | Structure (SMILES)
1 | 7.62 | 5.26 | – | – | O=C(NCC1CC1)O[C@H]1CC[C@@H](c2cc(Nc3cc4c(cc3F)S(=O)(=O)NC4)n[nH]2)C1 (relative stereo) [Example 420, cis-3-(3-((6-fluoro-1,1-dioxido-2,3-dihydrobenzo[d]isothiazol-5-yl)amino)-1H-pyrazol-5-yl)cyclopentyl(cyclopropylmethyl)carbamate]
2 | 6.87 | < 5.00 | – | – | CCNC(=O)O[C@H]1CC[C@@H](c2cc(Nc3cc4c(cc3F)S(=O)(=O)NC4)n[nH]2)C1 (relative stereo) [Example 421, cis-3-(3-((6-fluoro-1,1-dioxido-2,3-dihydrobenzo[d]isothiazol-5-yl)amino)-1H-pyrazol-5-yl)cyclopentyl ethylcarbamate]
3 | 8.57 | 6.60 | – | – | CC(C)(C)NC(=O)O[C@H]1CC[C@@H](c2cc(Nc3ccc4c(c3F)CS(=O)(=O)N4)n[nH]2)C1 (relative stereo) [Example 423, cis-3-(3-((4-fluoro-2,2-dioxido-1,3-dihydrobenzo[c]isothiazol-5-yl)amino)-1H-pyrazol-5-yl)cyclopentyl tert-butylcarbamate]
4 | 7.08 | < 5.00 | – | – | CN1c2ccc(Nc3cc([C@@H]4CC[C@H](OC(=O)NC5CCOC5)C4)[nH]n3)cc2CS1(=O)=O (relative stereo) [Example 424, cis-3-(3-((1-methyl-2,2-dioxido-1,3-dihydrobenzo[c]isothiazol-5-yl)amino)-1H-pyrazol-5-yl)cyclopentyl(tetrahydrofuran-3-yl)carbamate]
5 | 5.71 | < 5.00 | – | – | CC(C)NC(=O)O[C@H]1CC[C@@H](c2cc(Nc3cc4c(cn3)S(=O)(=O)NC4)n[nH]2)C1 (relative stereo) [Example 425, cis-3-(3-((1,1-dioxido-2,3-dihydroisothiazolo[5,4-c]pyridin-5-yl)amino)-1H-pyrazol-5-yl)cyclopentyl isopropylcarbamate]
6 | 7.29 | 5.31 | – | – | CN1c2ccc(Nc3cc([C@@H]4CC[C@H](OC(=O)NCC5(O)CC5)C4)[nH]n3)cc2CS1(=O)=O (relative stereo) [Example 426, cis-3-(3-((1-methyl-2,2-dioxido-1,3-dihydrobenzo[c]isothiazol-5-yl)amino)-1H-pyrazol-5-yl)cyclopentyl((1-hydroxycyclopropyl)methyl)carbamate]
7 | 7.68 | 5.31 | – | – | O=C(NC1CCOC1)O[C@H]1CC[C@@H](c2cc(Nc3ccc4c(c3)CS(=O)(=O)N4)n[nH]2)C1 (relative stereo) [Example 428, cis-3-(3-((2,2-dioxido-1,3-dihydrobenzo[c]isothiazol-5-yl)amino)-1H-pyrazol-5-yl)cyclopentyl(tetrahydrofuran-3-yl)carbamate]
8 | 6.88 | < 5.00 | – | – | O=C(NC1CCOC1)O[C@H]1CC[C@@H](c2cc(Nc3ccc4c(c3F)CS(=O)(=O)N4C3CC3)n[nH]2)C1 (relative stereo) [Example 429, cis-3-(3-((1-cyclopropyl-4-fluoro-2,2-dioxido-1,3-dihydrobenzo[c]isothiazol-5-yl)amino)-1H-pyrazol-5-yl)cyclopentyl(tetrahydrofuran-3-yl)carbamate]
9 | 7.38 | < 5.00 | – | – | O=C(NC1CCOC1)O[C@H]1CC[C@@H](c2cc(Nc3ccc4c(c3F)CS(=O)(=O)N4)n[nH]2)C1 (relative stereo) [Example 431, cis-3-(3-((4-fluoro-2,2-dioxido-1,3-dihydrobenzo[c]isothiazol-5-yl)amino)-1H-pyrazol-5-yl)cyclopentyl(tetrahydrofuran-3-yl)carbamate]
10 | 7.64 | 5.88 | – | – | CCC(=O)CNC(=O)O[C@H]1CC[C@@H](c2cc(Nc3ccc4c(c3F)CS(=O)(=O)N4)n[nH]2)C1 (relative stereo) [Example 432, cis-3-(3-((4-fluoro-2,2-dioxido-1,3-dihydrobenzo[c]isothiazol-5-yl)amino)-1H-pyrazol-5-yl)cyclopentyl(2-oxobutyl)carbamate]
11 | 8.77 | 6.13 | – | – | CC[C@H](C)NC(=O)O[C@H]1CC[C@@H](c2cc(Nc3ccc4c(c3F)CS(=O)(=O)N4CC(C)(C)O)n[nH]2)C1 (relative stereo) [Example 434, cis-3-(3-((4-fluoro-1-(2-hydroxy-2-methylpropyl)-2,2-dioxido-1,3-dihydrobenzo[c]isothiazol-5-yl)amino)-1H-pyrazol-5-yl)cyclopentyl((S)-sec-butyl)carbamate]
12 | 8.89 | 6.37 | – | – | CC(C)(O)CN1c2ccc(Nc3cc([C@@H]4CC[C@H](OC(=O)NC5(C)CC5)C4)[nH]n3)c(F)c2CS1(=O)=O (relative stereo) [Example 435, cis-3-(3-((4-fluoro-1-(2-hydroxy-2-methylpropyl)-2,2-dioxido-1,3-dihydrobenzo[c]isothiazol-5-yl)amino)-1H-pyrazol-5-yl)cyclopentyl(1-methylcyclopropyl)carbamate]
13 | 8.82 | 6.91 | – | – | CC1(C)CCCN1C(=O)O[C@H]1CC[C@@H](c2cc(Nc3ccc4c(c3F)CS(=O)(=O)N4)n[nH]2)C1 (relative stereo) [Example 436, cis-3-(3-((4-fluoro-2,2-dioxido-1,3-dihydrobenzo[c]isothiazol-5-yl)amino)-1H-pyrazol-5-yl)cyclopentyl 2,2-dimethylpyrrolidine-1-carboxylate]
14 | 6.60 | < 5.00 | – | – | CN(C(=O)O[C@H]1CC[C@@H](c2cc(Nc3ccc4c(c3F)CNS4(=O)=O)n[nH]2)C1)C1CCOC1 (relative stereo) [Example 437, cis-3-(3-((4-fluoro-1,1-dioxido-2,3-dihydrobenzo[d]isothiazol-5-yl)amino)-1H-pyrazol-5-yl)cyclopentyl methyl(tetrahydrofuran-3-yl)carbamate]
15 | 8.33 | 6.23 | – | – | O=C(NCCC(F)(F)F)O[C@H]1CC[C@@H](c2cc(Nc3ccc4c(c3F)CS(=O)(=O)N4)n[nH]2)C1 (relative stereo) [Example 438, cis-3-(3-((4-fluoro-2,2-dioxido-1,3-dihydrobenzo[c]isothiazol-5-yl)amino)-1H-pyrazol-5-yl)cyclopentyl(3,3,3-trifluoropropyl)carbamate]
16 | 8.57 | 6.67 | – | – | CC1(NC(=O)O[C@H]2CC[C@@H](c3cc(Nc4ccc5c(c4F)CS(=O)(=O)N5)n[nH]3)C2)CCCC1 (relative stereo) [Example 439, cis-3-(3-((4-fluoro-2,2-dioxido-1,3-dihydrobenzo[c]isothiazol-5-yl)amino)-1H-pyrazol-5-yl)cyclopentyl(1-methylcyclopentyl)carbamate]
17 | 6.72 | < 5.00 | – | – | CN(C(=O)O[C@H]1CC[C@@H](c2cc(Nc3cc4c(cc3F)S(=O)(=O)NC4)n[nH]2)C1)C1CCOC1 (relative stereo) [Example 440, cis-3-(3-((6-fluoro-1,1-dioxido-2,3-dihydrobenzo[d]isothiazol-5-yl)amino)-1H-pyrazol-5-yl)cyclopentyl methyl(tetrahydrofuran-3-yl)carbamate]
18 | – | – | 8.96 | 8.14 | CC(C)(C)NC(=O)O[C@H]1CC[C@@H](c2cc(Nc3ccc4c(c3)CS(=O)(=O)N4)n[nH]2)C1 [Example 403b]
19 | – | – | 7.74 | 6.14 | CC(C)(C)NC(=O)O[C@@H]1CC[C@H](c2cc(Nc3cc4c(cc3F)NS(=O)(=O)C4)n[nH]2)C1 [Example 404a]
20 | – | – | 7.85 | 6.34 | CC(C)(C)NC(=O)O[C@H]1CC[C@@H](c2cc(Nc3cc4c(cc3F)NS(=O)(=O)C4)n[nH]2)C1 [Example 404b]
21 | – | – | 7.57 | 6.05 | CC[C@H](C)NC(=O)O[C@H]1C[C@@H](c2cc(Nc3cc4c(cc3F)S(=O)(=O)NC4)n[nH]2)C1 [Example 410, (1s,3R)-3-(3-((6-fluoro-1,1-dioxido-2,3-dihydrobenzo[d]isothiazol-5-yl)amino)-1H-pyrazol-5-yl)cyclobutyl((S)-sec-butyl)carbamate]
22 | – | – | 8.03 | 6.41 | CC1(NC(=O)O[C@H]2C[C@@H](c3cc(Nc4cc5c(cc4F)S(=O)(=O)NC5)n[nH]3)C2)CC1 [Example 411, (1s,3s)-3-(3-((6-fluoro-1,1-dioxido-2,3-dihydrobenzo[d]isothiazol-5-yl)amino)-1H-pyrazol-5-yl)cyclobutyl(1-methylcyclopropyl)carbamate]
